Measurements as given in patent US10894052B2, “Heterocyclic inhibitors of ATR kinase” (Board of Regents, The University of Texas System, priority 2018, dated 2021).
Read-outs that look alike come from different tables or passages of the source.

What was measured:
[1] = molecular target: ATR/ATRIP complex (Homo sapiens (Human), UniProt Q13535); assay: ATR/ATRIP enzymatic assay (Caliper-based); format: biochemical; settings: ATR/ATRIP enzyme; FAM-labeled RAD17 peptide, ATP
Procedure: (§1) The ability of the compounds of Formula I to inhibit the catalytic activity of the ATR/ATRIP complex was measured in a Caliper-based assay, and in HT-29 cells in an Alphascreen assay, following the ATR-mediated phosphorylation of CHK1, described below.
Human full-length FLAG-TEV-ATR and His6-ATRIP were co-expressed in HEK293 cells. […] The sample was loaded into a column, and then washed with buffer A three times. Protein was subsequently eluted with 2 ml of buffer B (buffer A+200 μg/ml 3×FLAG peptide).
The ability of new chemical matter to inhibit the ATR catalytic activity in this ATR/ATRIP complex was assessed using a Caliper-based assay. A 2× enzyme solution (i.e., 4 nM enzyme) was prepared using 1× Kinase Reaction Buffer (25 mM HEPES pH 8, 0.0055% Brij-35, 10 mM MnCl2, and 1 mM DTT). […] 10 μL of the 2× enzyme solution was transferred to an assay plate containing 60 nL of test compound (from a 3× serial dilution) in 100% DMSO. Following a 30-min incubation at 28° C., 10 μL of the 2× peptide solution was then transferred to the same assay plate. The reaction incubated at 28° C. for 6 h. After adding 30 μL stop buffer (100 mM HEPES pH 7.5, 0.015% Brij-35, 0.2% Coating-3 Reagent (PerkinElmer, catalog #PN760050), and 50 mM EDTA), data were collected on a Caliper instrument. Conversion values were converted to inhibition values via the following equation: % inhibition=(max−conversion)/(max−min)*100, wherein “max” corresponds to the DMSO control, and “min” corresponds to the low control. IC50 values were calculated using the following equation in XLFit: Y=Bottom+(Top−Bottom)/1+(IC50/X)^HillSlope).

[2] = system: ATR-driven phosphorylation of Chk1 kinase at Serine 345 in HT-29 cells; assay: pCHK1 cellular assay (CHK1 p-Ser345 AlphaScreen SureFire); format: cell-based; settings: HT-29 colorectal adenocarcinoma cells, 4-nitroquinoline N-oxide 12 μM, read-out: Cell IC50 (pCHK1)
Procedure: as §1
Cellular IC50 for the inhibitors of ATR described herein were measured in HT-29 colorectal adenocarcinoma cells.
The microplate was incubated overnight (approximately 20 hours) at 37° C. with 5% CO2 and ambient O2. Stock solutions of the test compounds were prepared in 100% DMSO (Sigma, Catalog #D2650) and serially diluted 1:3 using 100% DMSO. Compounds were additionally diluted 1:33 in culture medium, and 10 μL/well were transferred to the tissue culture plate. Following the compound addition, the microplate was incubated at 37° C. for 90 minutes. […] The cells were then washed with PBS and lysed using 10 μL/well […]® Kit lysis buffer diluted to 1× in water (PerkinElmer Catalog #TGRCHK1S50K), with mixing on an orbital shaker at 500 rpm for 20 min at room temperature. Lysates were frozen at −20 OC overnight.
The pCHK1 ALPHASCREEN® signal was measured using an ENVISION® plate reader (PerkinElmer). IC50 values were calculated using a four-parameter logistic curve fit using Genedata Screener software. Percent of control for each compound concentration was calculated by the following formula: 100*(Compound−Min)/(Max−Min), where “Max” is the high control, DMSO, and “Min” is the low control, 5 μM ATR inhibitor.

Chain of ATR/ATRIP complex (Q13535 whole entry): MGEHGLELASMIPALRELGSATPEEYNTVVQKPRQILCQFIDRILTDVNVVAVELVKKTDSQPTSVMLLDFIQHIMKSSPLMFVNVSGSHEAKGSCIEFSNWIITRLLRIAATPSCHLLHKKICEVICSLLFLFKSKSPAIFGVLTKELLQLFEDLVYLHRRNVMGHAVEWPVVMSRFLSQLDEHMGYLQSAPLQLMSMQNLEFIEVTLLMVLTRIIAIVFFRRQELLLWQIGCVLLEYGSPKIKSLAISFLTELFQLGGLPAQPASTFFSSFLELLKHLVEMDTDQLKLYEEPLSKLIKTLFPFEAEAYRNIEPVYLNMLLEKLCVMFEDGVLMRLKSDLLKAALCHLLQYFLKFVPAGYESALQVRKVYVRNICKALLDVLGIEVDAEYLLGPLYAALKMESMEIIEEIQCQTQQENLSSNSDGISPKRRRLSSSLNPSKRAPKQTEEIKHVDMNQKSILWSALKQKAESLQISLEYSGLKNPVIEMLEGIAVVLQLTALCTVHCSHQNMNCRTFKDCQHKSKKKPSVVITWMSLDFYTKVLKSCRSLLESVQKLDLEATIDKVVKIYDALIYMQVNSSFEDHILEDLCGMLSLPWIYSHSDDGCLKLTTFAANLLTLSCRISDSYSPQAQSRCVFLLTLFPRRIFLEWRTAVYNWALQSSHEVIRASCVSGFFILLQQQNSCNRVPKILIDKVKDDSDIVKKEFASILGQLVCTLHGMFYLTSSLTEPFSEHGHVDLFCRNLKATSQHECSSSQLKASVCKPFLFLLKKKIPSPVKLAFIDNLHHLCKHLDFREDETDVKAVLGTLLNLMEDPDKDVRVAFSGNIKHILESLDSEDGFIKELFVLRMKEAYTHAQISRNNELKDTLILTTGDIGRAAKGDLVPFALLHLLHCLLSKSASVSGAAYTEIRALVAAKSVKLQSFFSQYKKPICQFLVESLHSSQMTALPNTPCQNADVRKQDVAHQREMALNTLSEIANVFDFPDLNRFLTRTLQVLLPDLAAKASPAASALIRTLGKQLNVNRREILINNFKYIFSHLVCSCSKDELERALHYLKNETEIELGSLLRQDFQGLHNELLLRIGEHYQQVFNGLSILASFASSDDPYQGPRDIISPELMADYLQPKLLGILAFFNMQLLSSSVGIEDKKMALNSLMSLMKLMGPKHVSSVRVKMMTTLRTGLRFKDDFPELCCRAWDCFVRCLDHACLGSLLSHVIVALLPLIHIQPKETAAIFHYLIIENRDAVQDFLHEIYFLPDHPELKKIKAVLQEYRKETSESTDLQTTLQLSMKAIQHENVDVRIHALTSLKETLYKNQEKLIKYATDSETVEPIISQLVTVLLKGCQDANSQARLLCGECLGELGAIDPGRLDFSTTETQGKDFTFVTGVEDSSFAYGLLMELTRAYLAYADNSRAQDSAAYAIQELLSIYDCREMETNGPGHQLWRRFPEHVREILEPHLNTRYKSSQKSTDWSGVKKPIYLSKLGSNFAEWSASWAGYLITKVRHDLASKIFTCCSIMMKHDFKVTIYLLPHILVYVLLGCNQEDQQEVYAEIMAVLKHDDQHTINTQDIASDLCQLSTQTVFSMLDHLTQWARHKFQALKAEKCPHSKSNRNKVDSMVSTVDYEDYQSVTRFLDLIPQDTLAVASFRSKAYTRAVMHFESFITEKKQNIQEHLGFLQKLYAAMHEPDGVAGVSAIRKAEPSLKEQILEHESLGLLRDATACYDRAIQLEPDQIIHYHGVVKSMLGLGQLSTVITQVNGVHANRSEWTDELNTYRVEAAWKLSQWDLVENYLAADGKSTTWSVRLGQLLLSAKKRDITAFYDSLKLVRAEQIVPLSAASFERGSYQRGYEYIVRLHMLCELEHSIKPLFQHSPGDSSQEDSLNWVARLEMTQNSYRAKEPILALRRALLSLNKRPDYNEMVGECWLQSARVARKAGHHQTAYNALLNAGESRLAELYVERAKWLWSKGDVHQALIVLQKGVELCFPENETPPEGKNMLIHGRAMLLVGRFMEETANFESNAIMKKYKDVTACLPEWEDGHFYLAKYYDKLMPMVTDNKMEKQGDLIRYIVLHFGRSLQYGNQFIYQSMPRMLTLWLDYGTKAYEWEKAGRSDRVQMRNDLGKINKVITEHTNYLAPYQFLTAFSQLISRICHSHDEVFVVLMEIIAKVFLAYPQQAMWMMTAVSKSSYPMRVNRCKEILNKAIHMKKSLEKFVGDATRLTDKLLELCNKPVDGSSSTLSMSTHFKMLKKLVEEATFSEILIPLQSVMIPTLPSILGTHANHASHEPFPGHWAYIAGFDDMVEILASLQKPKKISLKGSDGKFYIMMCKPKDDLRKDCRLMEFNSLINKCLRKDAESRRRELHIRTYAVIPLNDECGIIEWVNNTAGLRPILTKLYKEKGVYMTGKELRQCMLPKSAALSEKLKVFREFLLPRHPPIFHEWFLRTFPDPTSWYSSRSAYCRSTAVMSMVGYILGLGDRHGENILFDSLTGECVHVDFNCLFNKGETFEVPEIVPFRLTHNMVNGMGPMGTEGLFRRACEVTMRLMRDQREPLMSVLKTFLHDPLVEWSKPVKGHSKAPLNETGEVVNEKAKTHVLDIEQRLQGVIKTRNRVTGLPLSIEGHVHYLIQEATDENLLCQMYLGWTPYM
Chain of ATR/ATRIP complex (Q8WXE1 whole entry partner): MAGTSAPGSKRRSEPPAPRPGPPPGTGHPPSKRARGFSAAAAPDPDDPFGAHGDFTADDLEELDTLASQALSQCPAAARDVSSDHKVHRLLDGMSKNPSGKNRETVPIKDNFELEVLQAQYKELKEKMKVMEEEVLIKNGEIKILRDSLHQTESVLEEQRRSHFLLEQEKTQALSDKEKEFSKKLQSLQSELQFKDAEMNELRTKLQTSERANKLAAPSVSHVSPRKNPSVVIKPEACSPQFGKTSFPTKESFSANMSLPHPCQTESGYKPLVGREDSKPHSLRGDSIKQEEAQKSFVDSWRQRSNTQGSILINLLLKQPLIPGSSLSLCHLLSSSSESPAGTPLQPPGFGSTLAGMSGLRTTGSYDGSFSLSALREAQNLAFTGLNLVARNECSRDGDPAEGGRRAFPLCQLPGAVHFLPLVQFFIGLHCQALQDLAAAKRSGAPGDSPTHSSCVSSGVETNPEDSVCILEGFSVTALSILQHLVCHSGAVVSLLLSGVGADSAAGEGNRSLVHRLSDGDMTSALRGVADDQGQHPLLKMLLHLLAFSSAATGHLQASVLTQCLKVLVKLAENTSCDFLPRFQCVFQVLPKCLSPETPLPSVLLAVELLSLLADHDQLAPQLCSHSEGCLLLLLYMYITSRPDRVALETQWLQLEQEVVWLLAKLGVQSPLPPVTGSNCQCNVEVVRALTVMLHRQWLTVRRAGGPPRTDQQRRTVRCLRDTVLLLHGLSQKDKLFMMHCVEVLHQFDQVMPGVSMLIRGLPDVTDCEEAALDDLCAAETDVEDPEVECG

Row | IC50 [1] [nM] | IC50 ([2]; Homo sapiens) [nM] | IC50 [2] [nM] | SMILES
1 | 24 | 470 | – | C[C@@H]1COCCN1c1cc(N=S(C)(=O)C2COC2)nc(-c2cncc3[nH]ccc23)c1 (stereo partly drawn) [Example 24, methyl((4-((R)-3-methylmorpholino)-6-(1H-pyrrolo[2,3-c]pyridin-4-yl)pyridin-2-yl)imino)(oxetan-3-yl)-λ^6-sulfanone]
2 | 4 | 195 | – | C[C@@H]1COCCN1c1cc(N=S(C)(C)=O)nc(-c2cc(F)cc3[nH]ccc23)c1 [Example 32, (R)-((6-(6-fluoro-1H-indol-4-yl)-4-(3-methylmorpholino)pyridin-2-yl)imino)dimethyl-λ^6-sulfanone]
3 | 372 | 875 | – | C[C@@H]1COCCN1c1cc(N=S(C)(C)=O)nc(-c2ccnc(N)c2)c1 [Example 15, (R)-((2′-amino-4-(3-methylmorpholino)-[2,4′-bipyridin]-6-yl)imino)dimethyl-λ^6-sulfanone]
4 | 12 | 638 | – | C[C@@H]1COCCN1c1cc(N=S(C)(=O)C2COC2)nc(-c2ccnc3[nH]ccc23)c1 (stereo partly drawn) [Example 17, methyl((4-((R)-3-methylmorpholino)-6-(1H-pyrrolo[2,3-b]pyridin-4-yl)pyridin-2-yl)imino)(oxetan-3-yl)-λ^6-sulfanone]
5 | 9 | 110 | – | C[C@@H]1COCCN1c1cc(N=S(C)(=O)C2CC2)nc(-c2cncc3[nH]ccc23)c1 (stereo partly drawn) [Example 21, cyclopropyl(methyl)((4-((R)-3-methylmorpholino)-6-(1H-pyrrolo[2,3-c]pyridin-4-yl)pyridin-2-yl)imino)-λ^6-sulfanone]
6 | 29 | 470 | – | CCOc1cc(-c2cc(N3CCOC[C@H]3C)cc(N=S(C)(C)=O)n2)c2cc[nH]c2n1 [Example 18, (R)-((6-(6-ethoxy-1H-pyrrolo[2,3-b]pyridin-4-yl)-4-(3-methylmorpholino)pyridin-2-yl)imino)dimethyl-λ^6-sulfanone]
7 | 3470 | 3060 | – | Cc1nccn1-c1cc(N2CCOC[C@H]2C)cc(N=S(C)(C)=O)n1 [Example 39, (R)-dimethyl((6-(2-methyl-1H-imidazol-1-yl)-4-(3-methylmorpholino)pyridin-2-yl)imino)-λ^6-sulfanone]
8 | 48 | 3650 | – | COc1cc(-c2cc(N3CCOC[C@H]3C)cc(N=S(C)(C)=O)n2)c2cc[nH]c2n1 [Example 14, (R)-((6-(6-methoxy-1H-pyrrolo[2,3-b]pyridin-4-yl)-4-(3-methylmorpholino)pyridin-2-yl)imino)dimethyl-λ^6-sulfanone]
9 | 3440 | 10000 | – | C[C@@H]1COCCN1c1cc(N=S(C)(C)=O)nc(-c2cnn(C)c2)c1 [Example 34, (R)-dimethyl((6-(1-methyl-1H-pyrazol-4-yl)-4-(3-methylmorpholino)pyridin-2-yl)imino)-λ^6-sulfanone]
10 | 8 | 701 | – | C[C@@H]1COCCN1c1cc(N=S2(=O)CCCC2)nc(-c2ccnc3[nH]ccc23)c1 [Example 26, (R)-1-((4-(3-methylmorpholino)-6-(1H-pyrrolo[2,3-b]pyridin-4-yl)pyridin-2-yl)imino)tetrahydro-1H-1-λ^6-thiophene 1-oxide]
11 | 16 | 8620 | – | C[C@@H]1COCCN1c1cc(N=S(C)(C)=O)nc(-n2c(CO)nc3ccccc32)c1 [Example 7, (R)-((6-(2-(Hydroxymethyl)-1H-benzo[d]imidazol-1-yl)-4-(3-methylmorpholino)pyridin-2-yl)imino)dimethyl-λ^6-sulfanone]
12 | 24 | 10000 | – | Cc1nc2ccccc2n1-c1cc(N2CCOC[C@H]2C)cc(N=S(C)(C)=O)n1 [Example 28, (R)-dimethyl((6-(2-methyl-1H-benzo[d]imidazol-1-yl)-4-(3-methylmorpholino)pyridin-2-yl)imino)-λ^6-sulfanone]
13 | 4 | – | 195 | CCOc1cc(-c2cc(N3CCOC[C@@H]3C)cc(N=S(C)(C)=O)n2)c2cc[nH]c2n1 [Example 19]
14 | 44 | 10000 | – | C[C@@H]1COCCN1c1cc(N=S(C)(C)=O)nc(-n2cnc3cccnc32)c1 [Example 5, (R)-((6-(3H-Imidazo[4,5-b]pyridin-3-yl)-4-(3-methylmorpholino)pyridin-2-yl)imino)dimethyl-λ^6-sulfanone]
15 | 9 | 232 | – | C[C@@H]1COCCN1c1cc(N=S(C)(C)=O)nc(-c2cncc3[nH]ccc23)c1 [Example 13, (R)-dimethyl((4-(3-methylmorpholino)-6-(1H-pyrrolo[2,3-c]pyridin-4-yl)pyridin-2-yl)imino)-λ^6-sulfanone]
16 | 6 | – | 282 | C[C@@H]1COCCN1c1cc(N=S(C)(=O)C2CC2)nc(-c2cncc3[nH]ccc23)c1 (stereo partly drawn) [Example 22]
17 | 1 | 159 | – | C[C@@H]1COCCN1c1cc(N=S(C)(C)=O)nc(-n2c(N)nc3ccccc32)c1 [Example 9, (R)-((6-(2-Amino-1H-benzo[d]imidazol-1-yl)-4-(3-methylmorpholino)pyridin-2-yl)imino)dimethyl-λ^6-sulfanone]
18 | 9 | 767 | – | C[C@@H]1COCCN1c1cc(N=S2(=O)CCC2)nc(-c2ccnc3[nH]ccc23)c1 [Example 25, (R)-1-((4-(3-methylmorpholino)-6-(1H-pyrrolo[2,3-b]pyridin-4-yl)pyridin-2-yl)imino)-1-λ^6-thietane 1-oxide]
19 | 9 | 3160 | – | C[C@@H]1COCCN1c1cc(N=S(C)(C)=O)nc(-n2cnc3ccccc32)c1 [Example 11, (R)-((6-(1H-benzo[d]imidazol-1-yl)-4-(3-methylmorpholino)pyridin-2-yl)imino)dimethyl-λ^6-sulfanone]
20 | 1850 | 615 | – | C[C@@H]1COCCN1c1cc(N=S(C)(C)=O)nc(-c2ccnn2C)c1 [Example 33, (R)-dimethyl((6-(1-methyl-1H-pyrazol-5-yl)-4-(3-methylmorpholino)pyridin-2-yl)imino)-λ^6-sulfanone]
21 | 30 | 660 | – | C[C@@H]1COCCN1c1cc(N=S(C)(C)=O)nc(-c2cc(Cl)nc3[nH]ccc23)c1 [Example 27, (R)-((6-(6-chloro-1H-pyrrolo[2,3-b]pyridin-4-yl)-4-(3-methylmorpholino)pyridin-2-yl)imino)dimethyl-λ^6-sulfanone]
